# From publication PMC3937211, “Serine Carboxypeptidase SCPEP1 and Cathepsin A Play Complementary Roles in Regulation of Vasoconstriction via Inactivation of Endothelin-1” (PLoS Genetics, 2014)
# Assays:
# Scpep1 = molecular target: T1, Scpep1 (Mus musculus, UniProt Q920A5); assay: Carboxypeptidase activity of purified recombinant Scpep1-His6 against ET-1; format: biochemical; settings: pH 6.5 and 7.5, 50 µM ET-1
# T1 construct: Scpep1 has a cleavable signal peptide, N-linked glycans, the Ser-Asp-His catalytic triad and is proteolytically processed from a 55 kDa precursor; made in house; host or cells: HT1080 cells (stably transfected), protein purified from the culture medium
# T1 sequence (Q920A5 29-452): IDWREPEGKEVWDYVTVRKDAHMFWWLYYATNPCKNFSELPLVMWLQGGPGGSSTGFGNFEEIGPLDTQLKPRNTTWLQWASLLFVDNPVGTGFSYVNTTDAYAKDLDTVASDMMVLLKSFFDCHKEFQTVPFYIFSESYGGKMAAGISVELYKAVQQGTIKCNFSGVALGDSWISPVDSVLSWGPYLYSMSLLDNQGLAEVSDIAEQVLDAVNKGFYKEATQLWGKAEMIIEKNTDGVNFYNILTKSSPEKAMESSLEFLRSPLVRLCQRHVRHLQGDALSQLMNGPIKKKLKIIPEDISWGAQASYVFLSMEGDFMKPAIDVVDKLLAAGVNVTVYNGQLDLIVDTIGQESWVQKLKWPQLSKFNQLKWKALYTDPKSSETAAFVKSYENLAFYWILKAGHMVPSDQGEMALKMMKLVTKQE
# From the text: (§1) Figure 1 Scpep1 has carboxypeptidase activity against ET-1. A. Carboxypeptidase activity against ET-1 in homogenates of cultured AVSMC from WT, Scpep1 ^−/−, CathA^S190A and Scpep1 ^−/− /CathA^S190A mice as well as from the cells of Scpep1 ^−/− /CathA^S190A mice transiently transfected with pCMV-GFP and pCMV-Scpep1 plasmids. AVSMC after the passage 3 were transfected or not with Scpep1-RGS-His-Tag and pEGFP-C1 plasmids. Forty-eight hours after transfection confluent cells were harvested, homogenized and tested for carboxypeptidase activity using 50 µM ET-1 as a substrate. Data are expressed as means (±S.D.) of 3 independent experiments performed with different cell cultures. * p<0.05 and ** p<0.01 in two-tailed unpaired t-test. B. Carboxypeptidase activity against ET-1 in homogenates of cultured AVSMC from WT mice transfected with Scpep1 and CathA shRNA. […] The amino acid analysis of the reaction mixture determined that Scpep1 cleaves the C-terminal amino acid (Trp21) from ET-1 (not shown). […]
# HT1080 cells stably expressing Scpep1-His6 [19] were cultured in DMEM with 0.05% FCS. […] Purity of Scpep1-His6 was monitored by silver staining and Western blotting.
# (§2) Carboxypeptidase activity in cultured AVSMC was measured against 50 µM ET-1 as previously described using the method measuring the liberation rate of the C-terminal amino acid of the peptide. […]
# [1] = tested on: homogenates of cultured AVSMC; assay: Carboxypeptidase activity against ET-1 in homogenates of cultured AVSMC; format: biochemical, mouse; settings: 50 µM ET-1
# From the text: as §1, with “shRNA. AVSMC after the passage 3 were transfected with pRFP-C-RS vectors expressing shRNA for mouse CathA and Scpep1 or non-effective 29-mer scrambled shRNA as indicated. Seventy-two hours after transfection the cells were harvested, and those expressing plasmids enriched by cell-sorting, homogenized and tested for carboxypeptidase activity using 50 µM ET-1 as a substrate. […] C. Carboxypeptidase activity against ET-1 of purified recombinant Scpep1. Scpep1 carrying a His6 tag at the C-terminus was expressed in stably transfected HT1080 cells and purified by affinity chromatography on Ni-NTA resin followed by anion-exchange chromatography as described. Carboxypeptidase activity was assayed with 50 µM ET-1 as a substrate and 0.4–0.8 µg of the purified enzyme in the reaction mixture in 50 mM sodium phosphate/50 mM sodium acetate buffer at pH 5.5, 6.5 and 7.5. Bars show mean values (±S.D.) of 3 independent experiments.” for “shRNA.”
# as §2
substance,measurement,setting,value
endothelin-1 [ET-1],carboxypeptidase activity against ET-1 compared with pH 5.5,Scpep1,Lower activity
same,carboxypeptidase activity against ET-1,"[1]; AVSMC of CathA^S190A mice, sodium acetate buffer pH 5.4, 30–180 min at 37°C, 3 independent experiments",~10%
same,carboxypeptidase activity against ET-1,"[1]; CathA^S190A/Scpep1^−/− mice, pH 5.4, 37°C",~6%
same,carboxypeptidase activity against ET-1,"[1]; Scpep1^−/− mice, relative to WT, pH 5.4, 37°C",~70%
